Measurements reported in publication PMC7029632, “Routing Nanomolar Protein Cargoes to Lipid Raft‐Mediated/Caveolar Endocytosis through a Ganglioside GM1‐Specific Recognition Tag” (Advanced Science, 2020).

What was measured:
[1] = test system: HeLa cells; assay: Flow cytometry (FACS) uptake of NA constructs and fluorescently labeled sequences, HeLa; details: 1 µM cargo, 1 h, 37 °C, MEM+1% FBS, trypan blue quencher, triplicate
[2] = molecular target: ganglioside GM1; assay: ITC titration with GM1:DPC 1:5 bicelles; details: two-independent-binding-site model, pH 7.2 phosphate, 35 °C, read-out: K D toward GM1 (tagged NeutrAvidin)
[3] = test system: Jurkat cells; assay: Uptake in competition with galectin-1, flow cytometry; type: cell-based, human; details: only at concentrations orders of magnitude higher than serum galectin-1 level (6.7 nM)
[4] = cited from earlier work
Description: Helenius and Pelkmans pointed out that multivalent binding/clustering of ganglioside GM1 is necessary to trigger lipid raft‐mediated/caveolar endocytosis,9 and the tetravalent nature of our model carrier–cargo complex is consistent with this observation. On the other hand, the number of copies of the carrier sequence required for endocytosis can be crucial, especially if the carrier–cargo complex is produced by recombinant synthesis. […] CFU‐Penetratin, which has ...

Row | Kd [2] | Substance | level of uptake by FACS [1] | inhibition of GM1–WYKYW interaction by galectin-1 [3] | affinity for terminal digalactosides [4]
1 | 14.5 ± 1.7 nM | NA(biotinyl‐PEG‐WYKYW)4 [tetravalent FITC-labeled NeutrAvidin construct with biotinyl-PEG-WYKYW] | similar |  | 
2 |  | galectin‐1: protein binding terminal digalactosides, used as inhibitor |  | competitive inhibitor of the GM1–WYKYW interaction | micromolar affinity
